# Assay results as given in patent US8697739B2, “Bicyclic acetyl-CoA carboxylase inhibitors and uses thereof” (Novartis AG, priority 2010, dated 2014).
# Biological target: T1, human acetyl-CoA carboxylase 2 (ACC2) (Homo sapiens, UniProt O00763)
# T1 construct: The cDNA encoding amino acids 144 to 2458 of human acetyl-CoA carboxylase 2; made in house; host or cells: Sf9 insect cells (baculovirus, pFastBac1)
# Assay: Acetyl-CoA carboxylase enzyme assay (malonyl-CoA formation by LC/MS/MS)
# Format: biochemical
# Settings: recombinant human ACC2 (aa 144-2458); read-out: IC50 ACC2
# Summary of the method: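 Malonyl-CoA formation was read by LC/MS/MS MRM against a [13C3]-malonyl-CoA internal standard, after acetic acid quench. The enzyme was baculovirus/Sf9-expressed human ACC2 residues 144–2458, given 15 minutes room-temperature compound preincubation in HEPES pH 7.5 buffer with MgCl2, citrate and DTT. Substrate solution held 50 μM acetyl-CoA, 120 μM ATP and 2 mM KHCO3.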
# T1 sequence (O00763 144-2458): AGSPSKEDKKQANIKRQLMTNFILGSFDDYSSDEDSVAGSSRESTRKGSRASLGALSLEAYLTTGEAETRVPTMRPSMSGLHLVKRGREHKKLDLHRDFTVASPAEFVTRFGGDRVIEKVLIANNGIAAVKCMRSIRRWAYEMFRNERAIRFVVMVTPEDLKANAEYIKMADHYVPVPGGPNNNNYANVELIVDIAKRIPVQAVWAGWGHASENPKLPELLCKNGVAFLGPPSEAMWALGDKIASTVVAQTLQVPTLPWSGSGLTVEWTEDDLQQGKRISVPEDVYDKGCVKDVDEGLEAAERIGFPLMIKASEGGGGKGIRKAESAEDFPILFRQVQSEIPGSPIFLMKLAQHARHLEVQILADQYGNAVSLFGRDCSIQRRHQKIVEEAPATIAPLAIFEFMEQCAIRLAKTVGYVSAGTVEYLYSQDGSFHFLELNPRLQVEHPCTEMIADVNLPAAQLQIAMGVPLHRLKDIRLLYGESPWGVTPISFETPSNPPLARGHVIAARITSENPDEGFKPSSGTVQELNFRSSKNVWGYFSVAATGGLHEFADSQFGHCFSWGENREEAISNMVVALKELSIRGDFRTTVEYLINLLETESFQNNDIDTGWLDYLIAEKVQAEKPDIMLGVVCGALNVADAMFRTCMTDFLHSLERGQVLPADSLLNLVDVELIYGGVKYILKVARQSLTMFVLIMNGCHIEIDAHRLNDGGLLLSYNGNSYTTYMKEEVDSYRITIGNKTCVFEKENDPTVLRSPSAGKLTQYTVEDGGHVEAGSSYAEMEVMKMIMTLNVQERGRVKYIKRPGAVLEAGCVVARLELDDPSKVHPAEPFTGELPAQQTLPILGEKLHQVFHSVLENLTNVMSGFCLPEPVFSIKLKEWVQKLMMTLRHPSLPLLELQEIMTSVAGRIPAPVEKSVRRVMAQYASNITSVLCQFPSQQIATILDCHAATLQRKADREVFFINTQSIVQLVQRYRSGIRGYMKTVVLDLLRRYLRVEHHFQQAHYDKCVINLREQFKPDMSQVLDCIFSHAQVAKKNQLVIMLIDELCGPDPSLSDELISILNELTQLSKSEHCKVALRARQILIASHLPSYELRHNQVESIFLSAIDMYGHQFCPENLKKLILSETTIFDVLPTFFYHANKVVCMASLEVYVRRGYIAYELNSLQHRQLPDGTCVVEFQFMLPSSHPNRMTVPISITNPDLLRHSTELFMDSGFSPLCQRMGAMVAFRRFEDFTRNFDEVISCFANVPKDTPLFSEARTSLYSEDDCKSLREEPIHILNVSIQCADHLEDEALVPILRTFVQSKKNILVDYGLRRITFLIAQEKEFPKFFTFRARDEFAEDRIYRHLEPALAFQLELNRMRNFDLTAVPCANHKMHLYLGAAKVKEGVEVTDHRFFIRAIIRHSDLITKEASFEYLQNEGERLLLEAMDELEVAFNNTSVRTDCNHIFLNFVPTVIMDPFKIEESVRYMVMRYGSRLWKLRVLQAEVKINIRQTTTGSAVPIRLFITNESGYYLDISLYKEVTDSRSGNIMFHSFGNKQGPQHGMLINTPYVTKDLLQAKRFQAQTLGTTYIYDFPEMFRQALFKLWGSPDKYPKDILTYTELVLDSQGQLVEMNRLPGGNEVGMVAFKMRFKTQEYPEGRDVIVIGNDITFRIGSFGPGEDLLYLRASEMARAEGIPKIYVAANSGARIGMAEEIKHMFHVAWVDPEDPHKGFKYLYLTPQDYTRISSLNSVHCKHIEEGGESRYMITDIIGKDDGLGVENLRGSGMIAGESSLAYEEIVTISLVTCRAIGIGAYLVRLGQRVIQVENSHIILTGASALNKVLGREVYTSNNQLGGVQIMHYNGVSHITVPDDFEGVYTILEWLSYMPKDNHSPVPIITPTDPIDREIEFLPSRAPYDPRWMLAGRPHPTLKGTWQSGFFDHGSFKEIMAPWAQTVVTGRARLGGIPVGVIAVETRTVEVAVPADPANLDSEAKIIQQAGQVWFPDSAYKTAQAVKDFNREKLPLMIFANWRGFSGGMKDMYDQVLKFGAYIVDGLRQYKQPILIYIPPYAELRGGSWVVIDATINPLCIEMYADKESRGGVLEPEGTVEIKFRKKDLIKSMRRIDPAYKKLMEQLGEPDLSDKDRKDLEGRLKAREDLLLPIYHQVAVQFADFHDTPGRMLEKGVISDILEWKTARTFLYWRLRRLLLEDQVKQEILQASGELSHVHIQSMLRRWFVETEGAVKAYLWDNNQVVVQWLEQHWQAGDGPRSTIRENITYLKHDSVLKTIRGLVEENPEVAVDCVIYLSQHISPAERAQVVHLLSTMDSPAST
row,Compound,IC50 [µM]
1,"O=C(Nc1cc(F)cc(F)c1)[C@H]1CC[C@H](NS(=O)(=O)c2ccc3[nH]c(-c4ccccc4)nc3c2)CC1 [Example 646, (1r,4r)-N-(3,5-difluorophenyl)-4-(2-phenyl-1H-benzo[d]imidazole-5-sulfonamido)cyclohexanecarboxamide]",1.34
2,"O=C(Nc1ccc2ncccc2c1)[C@H]1CC[C@H](NS(=O)(=O)c2ccc3[nH]c(-c4ccccc4)nc3c2)CC1 [Example 647, (1r,4r)-4-(2-phenyl-1H-benzo[d]imidazole-5-sulfonamido)-N-(quinolin-6-yl)cyclohexanecarboxamide]",0.726
3,"O=C(Nc1cccc(C(F)(F)F)c1)[C@H]1CC[C@H](NS(=O)(=O)c2ccc3[nH]c(-c4ccccc4)nc3c2)CC1 [Example 648, (1r,4r)-4-(2-phenyl-1H-benzo[d]imidazole-5-sulfonamido)-N-(3-(trifluoromethyl)phenyl)cyclohexanecarboxamide]",1.84
4,"O=C(Nc1cccnc1)[C@H]1CC[C@H](NS(=O)(=O)c2ccc3[nH]c(-c4ccccc4)nc3c2)CC1 [Example 649, (1r,4r)-4-(2-phenyl-1H-benzo[d]imidazole-5-sulfonamido)-N-(pyridin-3-yl)cyclohexanecarboxamide]",0.387
5,"O=C([C@H]1CC[C@H](NS(=O)(=O)c2ccc3[nH]c(-c4ccccc4)nc3c2)CC1)N1CCOCC1 [Example 650, N-((1r,4r)-4-(morpholine-4-carbonyl)cyclohexyl)-2-phenyl-1H-benzo[d]imidazole-5-sulfonamide]",0.304
6,"CC(C)(C)c1nnc([C@H]2CC[C@H](NS(=O)(=O)c3ccc4[nH]c(C5CC5)nc4c3)CC2)o1 [Example 651, N-((1r,4r)-4-(5-tert-butyl-1,3,4-oxadiazol-2-yl)cyclohexyl)-2-cyclopropyl-1H-benzo[d]imidazole-5-sulfonamide]",6.35
7,"COC(=O)c1ccc(-c2nc3cc(S(=O)(=O)N[C@H]4CC[C@H](c5nnc(C(C)(C)C)o5)CC4)ccc3[nH]2)cc1 [Example 652, methyl 4-(5-(N-((1r,4r)-4-(5-tert-butyl-1,3,4-oxadiazol-2-yl)cyclohexyl)sulfamoyl)-1H-benzo[d]imidazol-2-yl)benzoate]",0.869
8,"CC(C)(C)c1nnc([C@H]2CC[C@H](NS(=O)(=O)c3ccc4[nH]c(-c5cccnc5)nc4c3)CC2)o1 [Example 653, N-((1r,4r)-4-(5-tert-butyl-1,3,4-oxadiazol-2-yl)cyclohexyl)-2-(pyridin-3-yl)-1H-benzo[d]imidazole-5-sulfonamide]",2.03
9,"CC(C)(C)c1nnc([C@H]2CC[C@H](NS(=O)(=O)c3ccc4[nH]c(Nc5cccnc5)nc4c3)CC2)o1 [Example 654, N-((1r,4r)-4-(5-tert-butyl-1,3,4-oxadiazol-2-yl)cyclohexyl)-2-(pyridin-3-ylamino)-1H-benzo[d]imidazole-5-sulfonamide]",0.158
10,"CC(C)(C)c1nnc([C@H]2CC[C@H](NS(=O)(=O)c3ccc4[nH]c(-c5ccc(N6CCNCC6)cc5)nc4c3)CC2)o1 [Example 655, N-((1r,4r)-4-(5-tert-butyl-1,3,4-oxadiazol-2-yl)cyclohexyl)-2-(4-(piperazin-1-yl)phenyl)-1H-benzo[d]imidazole-5-sulfonamide]",0.141
11,"CC(C)(C)c1nnc([C@H]2CC[C@H](NS(=O)(=O)c3ccc4[nH]c(-c5ccc(C(=O)O)cc5)nc4c3)CC2)o1 [Example 656, 4-(5-(N-((1r,4r)-4-(5-tert-butyl-1,3,4-oxadiazol-2-yl)cyclohexyl)sulfamoyl)-1H-benzo[d]imidazol-2-yl)benzoic acid]",0.87
12,"Cc1nc2cc(S(=O)(=O)N[C@H]3CC[C@H](c4nnc(C(C)(C)C)o4)CC3)ccc2n1Cc1ccccc1 [Example 657, 1-benzyl-N-((1r,4r)-4-(5-tert-butyl-1,3,4-oxadiazol-2-yl)cyclohexyl)-2-methyl-1H-benzo[d]imidazole-5-sulfonamide]",> 35
13,"Cc1nc2ccc(S(=O)(=O)N[C@H]3CC[C@H](C(=O)N4CCOCC4)CC3)cc2s1 [Example 658, 2-methyl-N-((1r,4r)-4-(morpholine-4-carbonyl)cyclohexyl)benzo[d]thiazole-6-sulfonamide]",71.7
14,"C[C@@H](NC(=O)[C@H]1CC[C@H](NS(=O)(=O)c2ccc3[nH]c(=O)oc3c2)CC1)c1ccc(F)cc1 [Example 659, (1r,4R)-N-((R)-1-(4-fluorophenyl)ethyl)-4-(2-oxo-2,3-dihydrobenzo[d]oxazole-6-sulfonamido)cyclohexanecarboxamide]",0.378
15,"Cc1nc2ccc(S(=O)(=O)N[C@H]3CC[C@H](C(=O)N[C@H](C)c4ccc(F)cc4)CC3)cc2s1 [Example 660, (1r,4R)-N-((R)-1-(4-fluorophenyl)ethyl)-4-(2-methylbenzo[d]thiazole-6-sulfonamido)cyclohexanecarboxamide]",0.242
16,"C[C@@H](NC(=O)[C@H]1CC[C@H](NS(=O)(=O)c2ccc3c(c2)OCO3)CC1)c1ccc(F)cc1 [Example 661, (1r,4R)-4-(benzo[d][1,3]dioxole-5-sulfonamido)-N-((R)-1-(4-fluorophenyl)ethyl)cyclohexanecarboxamide]",0.733

row,Compound,IC50 [µM]
1,"C[C@@H](NC(=O)[C@H]1CC[C@H](NC(=O)c2ccc3[nH]c(-c4ccccc4)nc3c2)CC1)c1ccc(F)cc1 [Example 662, N-((1R,4r)-4-((R)-1-(4-fluorophenyl)ethylcarbamoyl)cyclohexyl)-2-phenyl-1H-benzo[d]imidazole-5-carboxamide]",32.5
2,"Cc1nc2cc(S(=O)(=O)N[C@H]3CC[C@H](C(=O)N[C@H](C)c4ccc(F)cc4)CC3)ccc2[nH]1 [Example 663, (1r,4R)-N-((R)-1-(4-fluorophenyl)ethyl)-4-(2-methyl-1H-benzo[d]imidazole-5-sulfonamido)cyclohexanecarboxamide]",0.252
3,"C[C@@H]1CN(C(=O)[C@H]2CC[C@H](NS(=O)(=O)c3ccc4[nH]c(-c5ccccc5)nc4c3)CC2)C[C@H](C)O1 [Example 664, N-((1R,4r)-4-((2S,6R)-2,6-dimethylmorpholine-4-carbonyl)cyclohexyl)-2-phenyl-1H-benzo[d]imidazole-5-sulfonamide]",0.054
4,"C[C@H]1C[C@H](C)CN(C(=O)[C@H]2CC[C@H](NS(=O)(=O)c3ccc4[nH]c(-c5ccccc5)nc4c3)CC2)C1 [Example 665, N-((1S,4r)-4-((3S,5S)-3,5-dimethylpiperidine-1-carbonyl)cyclohexyl)-2-phenyl-1H-benzo[d]imidazole-5-sulfonamide]",0.04
5,"C[C@@H]1C[C@H](C)CN(C(=O)[C@H]2CC[C@H](NS(=O)(=O)c3ccc4[nH]c(-c5ccccc5)nc4c3)CC2)C1 [Example 666, N-((1R,4r)-4-((3S,5R)-3,5-dimethylpiperidine-1-carbonyl)cyclohexyl)-2-phenyl-1H-benzo[d]imidazole-5-sulfonamide]",0.03
6,"CCOC(=O)Cc1nc2cc(S(=O)(=O)N[C@H]3CC[C@H](C(=O)N[C@H](C)c4ccc(F)cc4)CC3)ccc2[nH]1 [Example 667, ethyl 2-(5-(N-((1R,4r)-4-((R)-1-(4-fluorophenyl)ethylcarbamoyl)cyclohexyl)sulfamoyl)-1H-benzo[d]imidazol-2-yl)acetate]",0.615
7,"C[C@@H](NC(=O)[C@H]1CC[C@H](NS(=O)(=O)c2ccc3[nH]c(CC(=O)O)nc3c2)CC1)c1ccc(F)cc1 [Example 668, 2-(5-(N-((1R,4r)-4-((R)-1-(4-fluorophenyl)ethylcarbamoyl)cyclohexyl)sulfamoyl)-1H-benzo[d]imidazol-2-yl)acetic acid]",0.124
8,"COC1CCN(C(=O)[C@H]2CC[C@H](NS(=O)(=O)c3ccc4[nH]c(-c5ccccc5)nc4c3)CC2)CC1 [Example 669, N-((1r,4r)-4-(4-methoxypiperidine-1-carbonyl)cyclohexyl)-2-phenyl-1H-benzo[d]imidazole-5-sulfonamide]",0.362
9,"Cn1ccc2cc(S(=O)(=O)N[C@H]3CC[C@H](C(=O)N[C@H](CO)c4ccccc4)CC3)ccc21 [Example 670, (1r,4S)-N-((S)-2-hydroxy-1-phenylethyl)-4-(1-methyl-1H-indole-5-sulfonamido)cyclohexanecarboxamide]",0.066
10,"Cn1ccc2cc(S(=O)(=O)N[C@H]3CC[C@H](C(=O)N[C@@H](CO)c4ccccc4)CC3)ccc21 [Example 671, (1r,4R)-N-((R)-2-hydroxy-1-phenylethyl)-4-(1-methyl-1H-indole-5-sulfonamido)cyclohexanecarboxamide]",> 35
11,"Cn1ccc2cc(S(=O)(=O)N[C@H]3CC[C@H](C(=O)N[C@H]4CCCCNC4=O)CC3)ccc21 [Example 672, (1r,4S)-4-(1-methyl-1H-indole-5-sulfonamido)-N-((S)-2-oxoazepan-3-yl)cyclohexanecarboxamide]",0.639
12,"Cn1ccc2cc(S(=O)(=O)N[C@H]3CC[C@H](C(=O)N[C@H](CCO)c4ccccc4)CC3)ccc21 [Example 673, (1r,4R)-N-((R)-3-hydroxy-1-phenylpropyl)-4-(1-methyl-1H-indole-5-sulfonamido)cyclohexanecarboxamide]",0.138
13,"COC[C@@H](NC(=O)[C@H]1CC[C@H](NS(=O)(=O)c2ccc3c(ccn3C)c2)CC1)c1ccccc1 [Example 674, (1r,4S)-N-((S)-2-methoxy-1-phenylethyl)-4-(1-methyl-1H-indole-5-sulfonamido)cyclohexanecarboxamide]",0.771
14,"COCCN(C(=O)[C@H]1CC[C@H](NS(=O)(=O)c2ccc3[nH]c(-c4ccccc4)nc3c2)CC1)C(C)C [Example 675, (1r,4R)-N-isopropyl-N-(2-methoxyethyl)-4-(2-phenyl-1H-benzo[d]imidazole-5-sulfonamido)cyclohexanecarboxamide]",0.105
15,"COCCN(C(=O)[C@H]1CC[C@H](NS(=O)(=O)c2ccc3[nH]c(-c4ccccc4)nc3c2)CC1)C1CCCCC1 [Example 676, (1r,4R)-N-cyclohexyl-N-(2-methoxyethyl)-4-(2-phenyl-1H-benzo[d]imidazole-5-sulfonamido)cyclohexanecarboxamide]",0.023
